A melting point compilation (Tetko et al.; mined from patent text by program, amines drawn as free bases though some values may be those of a salt)

SMILES | melting point
Oc1ccc2[nH]cc(C3=CCN(Cc4ccccc4)CC3)c2c1 | 223 to 227 °C
COC(=O)c1ccc(NS(=O)(=O)c2cc(OCC(F)(F)F)cc(OCC(F)(F)F)c2)cn1 | 158 to 160 °C
Nc1c(-c2ccc(Cl)cc2)nnn1-c1ccc(C(F)(F)F)cc1F | 170 °C
O=c1[nH]c(=S)[nH]cc1Cc1cccc(Cl)c1 | 192 to 195 °C
CC(=O)SCC(C(=O)NC(Cc1ccc(O)cc1)C(=O)O)C(F)(F)F (stereo not given) | 170 to 173 °C
N#Cc1ncc(NCCO)nc1Br | 158 to 160 °C
COc1cccc2c1nc(C(F)F)n2-c1nc(N2CCOCC2)nc(N2CCC(NS(=O)(=O)C(F)(F)F)CC2)n1 | 282 to 285 °C
Cc1cc(S(C)(=O)=O)ccc1C(=O)c1c(S(C)=O)noc1C1CC1 (stereo not given) | 142 °C
CC(C)N(CCCN1C(=O)/C(=N/NC(N)=O)c2ccccc21)C(C)C | 173 to 175 °C
C=Cc1c(N)nc(-c2ccc(Cl)c(OC)c2F)nc1C(=O)O | 167 to 168 °C
COc1ccc(N2C(=O)CN(C(C)C)C2=O)c(F)c1 | 88 to 90 °C
CCc1c(N)c(Cl)cc(Cc2cc(Cl)c(N)c(CC)c2Cl)c1Cl | 146 to 148 °C
CN(C)CCCN=C1CC(c2ccc(C(F)(F)F)cc2)Cc2c1c(=O)c1cc(Cl)ccc1n2O (stereo not given) | 130 to 135 °C
CCN(CC)Nc1ccc(CN2OCC(C)(C)C2=O)c(Cl)c1 | 139 to 141 °C
CC1(C(=O)CC#N)CC1 | 32 to 33 °C
CC1=Nc2c(C)nn(C)c2C2=NC(C)(C)CN12 | 148 to 150 °C
CS(=O)(=O)N(CCc1ccccn1)CC(O)(Cn1cncn1)c1ccc(Cl)cc1Cl (stereo not given) | 151 to 153 °C
COC(=O)CCNCc1ccc(-c2cc3ncnc(Nc4ccc5[nH]ccc5c4)c3s2)cc1 | 105 to 118 °C
CC(C)c1ccc(N2COCN(C)C2=O)cc1F | 45 °C

Results, then the compound that gave them:

melting point | SMILES
163 °C | Oc1ccc2c(c1)CCCC(c1ccccc1)=C2c1ccc(OCCCCCSCCCCF)cc1
176 to 178 °C | CC1=C(c2ccc(C(=O)O)cc2)CCCC1
142 to 145 °C | CC(=NC(=Nc1ccccc1)N1CCOCC1)NC(C)C
211 to 214 °C | O=C(O)CNC1Cc2ccccc2C1
228 to 229 °C | O=C(Nc1cnc2ccc(Cl)cc2c1-c1ccccc1)Nc1c(F)cccc1F
207 to 210 °C | COc1cc(/C=C/C(=O)Nc2ccccc2C(=O)O)ccc1OCC1CCCCC1
168 to 170 °C | Cc1cccc(NC(=O)CN2CCN(c3ccccc3C#N)CC2)c1
101 to 103 °C | O=C(NOCC(O)CN1CCCCC1)Nc1ccccc1 (stereo not given)
205 to 206 °C | Cc1ccccc1NC(=O)Nc1ccc(CC(=O)O)cc1
125 to 127 °C | Clc1ccc(CN2CC=C(C=Cc3ccsc3)CC2)cc1
144 °C | CCCn1nc(CC)c(C(=O)OC)c1Cc1ccc(-c2ccccc2S(N)(=O)=O)cc1
120 to 122 °C | O=C1CC2CCc3ccc(Cl)cc3C2=NN1c1ccccc1 (stereo not given)
115 to 116 °C | O=C(O)Cc1ccccc1OCc1ccc(OCc2csc(-c3ccccc3)n2)cc1
145 to 147 °C | COc1ccc(NCCCCCNC(C)=O)c2c1C(=O)c1ccccc1C2=O
154 to 157 °C | COc1ccc(Sc2c([N+](=O)[O-])ccc(Cl)c2C(=O)O)cc1
170 to 172 °C | COc1ccc(F)cc1C(C)(C)CC(O)(Cn1ccc(=O)c2ccccc21)C(F)(F)F (stereo not given)
132 to 134 °C | COc1cc2c(cc1OC)OCCC(C(=O)N1CCN(C(=O)c3cc(OC)c(OC)c(OC)c3)CC1)=C2
208 to 210 °C | Nc1ccccc1NC(=O)c1cc2cccc(OCC(=O)O)c2o1
140 to 142 °C | C#CC(C)N(C)C(=O)Nc1ccc(Oc2cccc(Cl)n2)cc1 (stereo not given)
169 to 172 °C | Cc1cccc(NC(=O)NC2CN(Cc3ccccc3)c3ccccc3N(CC(=O)c3ccccc3C)C2=O)c1 (stereo not given)
159 to 160 °C | CCCCCS(=O)(=O)NC(=O)/C=C/c1cc(OCCCC)nn1Cc1ccc(C(F)(F)F)cc1
